Measured values: PMC5484537 (Bioorganic & medicinal chemistry, 2016)
Values belong to the molecule of their own block, whether it stands above or below them.

Legend:
[1] = target: T1, TAK1 (Homo sapiens, UniProt O43318); test: KINOMEscan binding to TAK1; settings: for binding to TAK1 in KINOMEscan: concentration of 1 μM
T1 sequence (O43318 1-606): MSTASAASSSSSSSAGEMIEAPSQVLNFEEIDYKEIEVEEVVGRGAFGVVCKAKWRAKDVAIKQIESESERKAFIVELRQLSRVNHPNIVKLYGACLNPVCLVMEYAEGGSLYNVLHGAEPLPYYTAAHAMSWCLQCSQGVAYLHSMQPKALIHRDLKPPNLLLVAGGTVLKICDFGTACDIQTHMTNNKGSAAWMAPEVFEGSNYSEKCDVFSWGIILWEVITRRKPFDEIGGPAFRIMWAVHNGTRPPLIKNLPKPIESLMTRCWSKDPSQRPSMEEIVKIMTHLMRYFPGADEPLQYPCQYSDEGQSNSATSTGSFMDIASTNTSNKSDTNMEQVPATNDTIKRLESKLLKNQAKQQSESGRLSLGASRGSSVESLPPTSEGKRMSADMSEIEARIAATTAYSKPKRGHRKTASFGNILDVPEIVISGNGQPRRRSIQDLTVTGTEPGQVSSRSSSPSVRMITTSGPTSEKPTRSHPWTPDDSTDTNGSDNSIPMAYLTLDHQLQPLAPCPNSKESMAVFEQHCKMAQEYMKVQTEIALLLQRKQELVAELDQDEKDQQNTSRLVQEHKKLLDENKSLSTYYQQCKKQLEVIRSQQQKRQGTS

[2] = target: T2, TAK1 (Homo sapiens, UniProt O43318); test: Mass spectrometry analysis of purified TAK1 incubated with compound; assay type: binding; settings: Fig S3
T2 sequence (O43318 with tags, fused parts or gaps): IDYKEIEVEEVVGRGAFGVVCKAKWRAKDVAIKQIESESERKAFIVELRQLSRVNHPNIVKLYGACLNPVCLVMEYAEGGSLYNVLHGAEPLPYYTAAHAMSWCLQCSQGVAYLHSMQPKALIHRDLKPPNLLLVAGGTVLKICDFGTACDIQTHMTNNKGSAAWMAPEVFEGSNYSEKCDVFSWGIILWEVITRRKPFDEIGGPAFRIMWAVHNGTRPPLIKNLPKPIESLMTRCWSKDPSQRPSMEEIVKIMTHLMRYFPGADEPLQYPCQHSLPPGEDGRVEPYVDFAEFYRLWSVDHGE

[3] = target: ERK2 (Homo sapiens, UniProt P28482); test: Z'-Lyte activity assay, ERK2; assay type: biochemical; settings: compound incubation time of 60 min
Sequence of ERK2 (P28482 2-360): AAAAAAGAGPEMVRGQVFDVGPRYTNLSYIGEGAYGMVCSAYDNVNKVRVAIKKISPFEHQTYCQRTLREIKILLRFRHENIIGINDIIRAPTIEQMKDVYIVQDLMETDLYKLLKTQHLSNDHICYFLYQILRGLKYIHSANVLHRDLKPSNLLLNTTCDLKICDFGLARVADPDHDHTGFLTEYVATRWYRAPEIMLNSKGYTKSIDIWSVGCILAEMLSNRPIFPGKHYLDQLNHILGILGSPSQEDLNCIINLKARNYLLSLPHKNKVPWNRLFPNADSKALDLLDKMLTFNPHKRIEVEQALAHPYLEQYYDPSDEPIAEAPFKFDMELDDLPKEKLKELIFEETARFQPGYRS

[4] = system: panel of 468 kinases and mutants; test: KINOMEscan in vitro ATP-site competition binding assay, kinome selectivity; design: species or system human; settings: KINOMEscan at 1 μM; for selectivity score S(1): 468 kinases and mutants, kinases with scores less than 1
[5] = target: T3, TAK1 (Homo sapiens, UniProt O43318); test: Time-dependent experiments, Kinact/Ki determination; assay type: binding
T3 sequence (O43318 1-303 limits assumed): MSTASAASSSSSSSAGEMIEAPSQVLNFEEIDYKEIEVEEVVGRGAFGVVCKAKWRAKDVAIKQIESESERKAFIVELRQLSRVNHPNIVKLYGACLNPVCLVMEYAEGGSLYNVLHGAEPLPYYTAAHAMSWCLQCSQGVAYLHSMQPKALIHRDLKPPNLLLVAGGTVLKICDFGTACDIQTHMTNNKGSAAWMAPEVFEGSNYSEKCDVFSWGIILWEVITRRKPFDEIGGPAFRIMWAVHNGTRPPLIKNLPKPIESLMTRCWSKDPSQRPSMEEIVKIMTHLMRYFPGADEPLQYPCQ

- inhibition score against TAK1 in KINOMEscan ([1]; 10 μM): moderate inhibition score
- binding to TAK1 in KINOMEscan [1]: did not display strong binding
Structure (SMILES): COc1cc(O)c2c(c1)/C=C/C[C@H](O)[C@H](O)C(=O)/C=C\C[C@H](C)OC2=O [5Z7, 5Z-7-oxozeaenol, reference compound]

- labeling of TAK1 residue [2]: exclusive labeling of Cys174
Structure (SMILES): C=CC(=O)Nc1ccccc1Oc1nc(Nc2ccc(N3CCN(C)CC3)cc2)ncc1Cl [compound 2, N-(2-((5-chloro-2-((4-(4-methylpiperazin-1-yl)phenyl)amino)pyrimidin-4-yl)oxy)phenyl)acrylamide]

Structure (SMILES): C=CC(=O)Nc1ccccc1Nc1nc(Nc2ccc(N3CCN(C)CC3)cc2)ncc1Cl [compound 5, N-(2-((5-chloro-2-((4-(4-methylpiperazin-1-yl)phenyl)amino)pyrimidin-4-yl)amino)phenyl)acrylamide]
- Enzymatic IC50s ERK2 [3]: weak activity
- binding to kinases with a cysteine at the DFG-1 position [4]: binds to TAK1 and ten other kinases with a cysteine at the DFG-1 position
- selectivity score S(1) [4]: 0.10
- kinact/KI [5]: 6870 M⁻¹ s⁻¹

Structure (SMILES): C=CC(=O)Oc1ccccc1Nc1nc(Nc2ccc(N3CCN(C)CC3)cc2)ncc1Cl [compound 7, 2-((5-chloro-2-((4-(4-methylpiperazin-1-yl)phenyl)amino)pyrimidin-4-yl)amino)phenyl acrylate]
- selectivity score S(1) [4]: 0.19

Structure (SMILES): CCC(=O)Nc1ccccc1Nc1nc(Nc2ccc(N3CCN(C)CC3)cc2)ncc1Cl [compound 9]
- binding to kinases with a cysteine at the DFG-1 position [4]: hits no kinases with a cysteine at the DFG-1 position
- selectivity score S(1) [4]: 0.10

Structure (SMILES): C=CC(=O)Nc1ccccc1Oc1nc(Nc2cnn(C(F)F)c2)ncc1Cl [compound 23]
- binding to TAK1 in KINOMEscan [1]: TAK1 was not ranked among the strongest hits
- selectivity score S(5) [4]: 0.1

Structure (SMILES): C=CC(=O)Nc1ccccc1Oc1nc(Nc2cnn(CCOC)c2)ncc1Cl [compound 25]
- binding to TAK1 in KINOMEscan [1]: TAK1 was not ranked among the strongest hits
- selectivity score S(5) [4]: 0.03
